According to publication PMC11497074 (RSC Advances, 2024):

Biological target: CA IX (Homo sapiens, UniProt Q16790)
Test: biochemical

O=c1ccc2ccc(O[C@@H]3O[C@H](CO)[C@@H](O)[C@H](O)[C@H]3O)cc2o1 [Skimmin, skimmin]
IC50: 548 ± 35.7 nM
